Reference: US11458138B2 (Novartis AG, priority 2017, dated 2022)

Key:
LATS1 = LATS1 (Homo sapiens (Human), UniProt O95835); experiment: LATS1 biochemical assay (Table 1A, Compound Examples 1-290; method in the earlier part)
[1] = system: Phospho-YAP (SER127) in HaCaT cells; experiment: pYAP HTRF Assay (HaCaT Cells); type: cell-based, human; details: Homo sapiens, 2 hours
Method in brief: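 HaCaT cells at 5500 cells/well were cultured 48 hours at 37° C, then treated with compound for 2 hours. Phospho-YAP (Ser127) was detected by HTRF after an overnight (20 hrs) room-temperature incubation, read as the 665 nm/620 nm ratio.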

[2] = system: YAP nuclear translocation in HaCaT cells; experiment: YAP Translocation Assay (HaCaT Cells); type: cell-based, human; details: Homo sapiens, 24 hours
Method in brief: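 HaCaT cells (20,000/well) in DMEM + 10% FBS were plated overnight at 37° C, then exposed to compound for 24 h at 37° C. Cells were fixed with PFA, permeabilized with 0.1% Triton/1.5% BSA and imaged by high-content imaging.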

[3] = system: Phospho-YAP (Ser127) in JHH-5 cells; experiment: pYAP HTRF Assay (JHH-5 cells); type: cell-based; details: 2 hours
Procedure: Briefly, JHH-5 cells are suspended at 0.48×10^6 cells/ml in William's E medium without phenol-red (Thermo Fisher Scientific Gibco catalog number A1217601) supplemented with 10% (v/v) heat-inactivated fetal bovine serum (Thermo Fisher Scientific Gibco catalog number 16140071) and penicillin-streptomycin at 100 U/ml each (Thermo Fisher Scientific Gibco catalog number 15140122). Cells are dispensed into 384well clear bottom culture plates (50 ul/well, at 24000 cells per well, Greiner catalog number 781091), and incubated for 24 hours in a cell culture incubator at 37° C. Test compounds are transferred into culture plates containing JHH-5 cells using an Echo550 (Labcyte) acoustic dispenser (50 nl/well), followed by incubation for 2 hours at 37° C. Lysis buffer (part of CisBio kit catalog number 64YAPPEI) is added to the assay plates as a four-fold concentrate (corresponding to 16 ul/well) and incubated for 30 minutes at room temperature with agitation. Lysate is transferred from culture plates into white low-volume 384well assay plates (12 ul/well, Greiner catalog number 784075), followed by the addition of 3 ul/well of detection antibodies (part of CisBio kit catalog number 64YAPPEI: 1:40 dilution of each pYAP d2 antibody and pYAP cryptate antibody stocks). The plates are sealed and incubated overnight (18 hours) at room temperature protected from light. Plates are read on an EnVision plate reader (Perkin Elmer) at emission wavelengths of 665 nm and 620 nm. The HTRF signal ratio x per well is calculated as [x=Signal(665 nm)/Signal(620 nm)×10000] as specified in the manufacturer's protocol.

Chain of LATS1 (O95835 whole entry, looked up): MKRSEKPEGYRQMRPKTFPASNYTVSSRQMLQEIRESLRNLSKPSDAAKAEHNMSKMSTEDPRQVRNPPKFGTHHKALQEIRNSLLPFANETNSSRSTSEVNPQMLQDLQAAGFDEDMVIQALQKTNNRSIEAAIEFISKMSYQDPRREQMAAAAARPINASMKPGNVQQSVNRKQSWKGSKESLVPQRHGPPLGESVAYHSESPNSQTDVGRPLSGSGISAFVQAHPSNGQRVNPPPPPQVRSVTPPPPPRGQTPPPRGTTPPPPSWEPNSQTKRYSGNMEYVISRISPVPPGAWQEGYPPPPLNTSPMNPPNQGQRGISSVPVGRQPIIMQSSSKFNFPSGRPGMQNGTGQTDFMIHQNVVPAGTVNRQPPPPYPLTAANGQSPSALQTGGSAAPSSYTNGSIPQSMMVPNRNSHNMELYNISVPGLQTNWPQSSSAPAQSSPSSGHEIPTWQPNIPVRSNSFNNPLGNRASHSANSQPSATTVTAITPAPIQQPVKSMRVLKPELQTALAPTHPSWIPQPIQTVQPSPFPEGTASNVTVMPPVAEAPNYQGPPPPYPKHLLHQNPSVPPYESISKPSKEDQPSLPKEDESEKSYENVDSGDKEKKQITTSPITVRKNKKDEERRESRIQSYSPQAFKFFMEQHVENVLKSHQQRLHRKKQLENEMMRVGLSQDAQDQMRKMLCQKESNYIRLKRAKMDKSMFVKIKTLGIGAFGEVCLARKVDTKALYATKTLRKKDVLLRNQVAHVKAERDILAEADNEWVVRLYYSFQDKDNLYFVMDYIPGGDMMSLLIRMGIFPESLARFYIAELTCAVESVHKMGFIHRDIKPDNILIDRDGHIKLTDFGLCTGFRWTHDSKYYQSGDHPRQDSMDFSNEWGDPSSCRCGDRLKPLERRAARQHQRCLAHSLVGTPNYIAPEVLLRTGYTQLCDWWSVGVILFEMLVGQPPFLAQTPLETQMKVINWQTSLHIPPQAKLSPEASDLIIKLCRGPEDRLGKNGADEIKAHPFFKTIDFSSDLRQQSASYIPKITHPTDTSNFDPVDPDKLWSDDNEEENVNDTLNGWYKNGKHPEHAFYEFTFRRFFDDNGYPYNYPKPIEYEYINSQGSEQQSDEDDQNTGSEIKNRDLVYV
Chain of LATS1 (Q7L9L4 whole entry partner, looked up): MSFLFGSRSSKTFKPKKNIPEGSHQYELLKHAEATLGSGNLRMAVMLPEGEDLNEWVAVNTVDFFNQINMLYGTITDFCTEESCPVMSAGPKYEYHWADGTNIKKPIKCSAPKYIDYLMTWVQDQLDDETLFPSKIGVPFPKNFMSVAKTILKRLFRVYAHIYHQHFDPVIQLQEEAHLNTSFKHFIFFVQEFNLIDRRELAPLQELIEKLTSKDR

| SMILES | IC50 (LATS1) [nM] | IC50 [3] [nM] | IC50 [1] [nM] | EC50 [2] [nM] |
| --- | --- | --- | --- | --- |
| CCN(CC)c1nc(-c2ccncc2)nc2cnccc12 [Example 2] | 1 | > 10000 | 67 | 584 |
| CCN(c1nc(-c2ccncc2)nc2cnccc12)C(C)C [Example 3, N-ethyl-N-(propan-2-yl)-2-(pyridin-4-yl)pyrido[3,4-d]pyrimidin-4-amine] | 1 | 1000 | 853 | 641 |
| COCC(C)(C)Nc1nc(-c2ccncc2)nc2cnccc12 [Example 7, N-(1-methoxy-2-methylpropan-2-yl)-2-(pyridin-4-yl)pyrido[3,4-d]pyrimidin-4-amine] | 2 | 1600 | 165 | 733 |
| COCCC(C)(C)Nc1nc(-c2ccncc2)nc2cnccc12 [Example 8, N-(4-methoxy-2-methylbutan-2-yl)-2-(pyridin-4-yl)pyrido[3,4-d]pyrimidin-4-amine] | 3 | 1900 | 198 | 1200 |
| CCN(C)c1nc(-c2ccncc2)nc2cnccc12 [Example 10, N-ethyl-N-methyl-2-(pyridin-4-yl)pyrido[3,4-d]pyrimidin-4-amine] | 3 | 8700 | 2960 | 3550 |
| CC(C)(Nc1nc(-c2ccncc2)nc2cnccc12)C1CCCCC1 [Example 15, N-(2-cyclohexylpropan-2-yl)-2-(pyridin-4-yl)pyrido[3,4-d]pyrimidin-4-amine] | 4 | 4100 | 660 | 3480 |
| CC(C)(CNCC(=O)O)Nc1nc(-c2ccncc2)nc2cnccc12 [Example 30, 2-[(2-methyl-2-{[2-(pyridin-4-yl)pyrido[3,4-d]pyrimidin-4-yl]amino}propyl)amino]acetic acid] | 39 | > 10000 |  | > 20000 |
| CC(C)(CC(=O)O)Nc1nc(-c2ccncc2)nc2cnccc12 [Example 40, 3-methyl-3-{[2-(pyridin-4-yl)pyrido[3,4-d]pyrimidin-4-yl]amino}butanoic acid] | 328 | > 10000 | > 10000 | > 20000 |
| CC(C)(O)C(C)(Nc1nc(-c2ccncc2)nc2cnccc12)C(F)(F)F (stereo not shown) [Example 50, 4,4,4-trifluoro-2,3-dimethyl-3-{[2-(pyridin-4-yl)pyrido[3,4-d]pyrimidin-4-yl]amino}butan-2-ol] | 5 | > 10000 | 17000 | 3810 |
| CC(C)(CCO)Nc1nc(-c2ccncc2)nc2cnccc12 [Example 61, 3-methyl-3-{[2-(pyridin-4-yl)pyrido[3,4-d]pyrimidin-4-yl]amino}butan-1-ol] | 1 | 1400 | 141 | 517 |
| FC(F)(F)C1(Nc2nc(-c3ccncc3)nc3cnccc23)CC1 [Example 64, 2-(pyridin-4-yl)-N-[1-(trifluoromethyl)cyclopropyl]pyrido[3,4-d]pyrimidin-4-amine] | 1 | 2100 | 63 | 479 |
| CCC(C)Nc1nc(-c2ccncc2)nc2cnccc12 (stereo not shown) [Example 68, N-(butan-2-yl)-2-(pyridin-4-yl)pyrido[3,4-d]pyrimidin-4-amine] | 2 | 3500 | 1230 | 3390 |
| C[C@]1(Nc2nc(-c3ccncc3)nc3cnccc23)C[C@@H](O)C1 [Example 70, (1r,3s)-3-methyl-3-{[2-(pyridin-4-yl)pyrido[3,4-d]pyrimidin-4-yl]amino}cyclobutan-1-ol] | 3 | 4000 | 422 | 1680 |
| CC(C)(O)C(C)(C)Nc1nc(-c2ccncc2)nc2cnccc12 [Example 71, 2,3-dimethyl-3-{[2-(pyridin-4-yl)pyrido[3,4-d]pyrimidin-4-yl]amino}butan-2-ol] | 4 | > 10000 | 26 | 1570 |
| CN(C)CCC(C)(C)Nc1nc(-c2ccncc2)nc2cnccc12 [Example 109, dimethyl(3-methyl-3-{[2-(pyridin-4-yl)pyrido[3,4-d]pyrimidin-4-yl]amino}butyl)amine] |  | 1500 | 977 | 4710 |
| OCC1(Nc2nc(-c3cn[nH]c3)nc3cnccc23)CC1 [Example 192, (1-{[2-(1H-pyrazol-4-yl)pyrido[3,4-d]pyrimidin-4-yl]amino}cyclopropyl)methanol] | 201 |  | > 10000 | > 20000 |
| CC1(Nc2nc(-c3cn[nH]c3)nc3cnccc23)CC1 [Example 194, N-(1-methylcyclopropyl)-2-(1H-pyrazol-4-yl)pyrido[3,4-d]pyrimidin-4-amine] | 5 |  | 11300 | 4240 |

More lines, main results first:

| IC50 (LATS1) [nM] | IC50 [3] [nM] | SMILES | IC50 [1] [nM] | EC50 [2] [nM] |
| --- | --- | --- | --- | --- |
| > 2500 |  | Cn1cc(-c2nc(NC3(C)CC3)c3ccncc3n2)cn1 [Example 196, 2-(1-methyl-1H-pyrazol-4-yl)-N-(1-methylcyclopropyl)pyrido[3,4-d]pyrimidin-4-amine] | > 10000 | > 20000 |
| 1 | 3200 | Cc1nccc2c(NC3(C)CC3)nc(-c3ccncc3)nc12 [Example 199, 8-methyl-N-(1-methylcyclopropyl)-2-(pyridin-4-yl)pyrido[3,4-d]pyrimidin-4-amine] |  | 9100 |
| 2 |  | CC1(Nc2nc(-c3ccncc3)nc3cncc(Cl)c23)CC1 [Example 252, 5-chloro-N-(1-methylcyclopropyl)-2-(pyridin-4-yl)pyrido[3,4-d]pyrimidin-4-amine] | 6980 | > 10000 |
| 85 |  | CC(C)(C)Nc1nc(-c2ccncc2)nc2cncc(NCCOCCO)c12 [Example 253] | 16700 | > 20000 |
| 22 | > 10000 | CC[C@@H](C)Nc1cc(-c2ccncc2)nc2cnccc12 [Example 257, N-[(2R)-butan-2-yl]-2-(pyridin-4-yl)-1,7-naphthyridin-4-amine] |  | > 20000 |
| 23 | > 10000 | COCC(C)(C)Nc1cc(-c2ccncc2)nc2cnccc12 [Example 258, N-(1-methoxy-2-methylpropan-2-yl)-2-(pyridin-4-yl)-1,7-naphthyridin-4-amine] |  | 9920 |
|  | > 10000 | c1cc(-c2cc(NC3CCCC3)c3ccncc3n2)ccn1 [Example 264, N-cyclopentyl-2-(pyridin-4-yl)-1,7-naphthyridin-4-amine] | 14800 | 11200 |
| 18 | > 10000 | CCCNc1cc(-c2ccncc2)nc2cnccc12 [Example 268, N-propyl-2-(pyridin-4-yl)-1,7-naphthyridin-4-amine] |  | > 20000 |
| 13 | > 10000 | CC(C)(C)Nc1cc(-c2ccnc(N)c2)nc2cnccc12 [Example 274, 2-(2-aminopyridin-4-yl)-N-tert-butyl-1,7-naphthyridin-4-amine] |  | 17300 |
| 11 | > 10000 | CCN(CC)c1cc(-c2ccncc2F)nc2cnccc12 [Example 275, N,N-diethyl-2-(3-fluoropyridin-4-yl)-1,7-naphthyridin-4-amine] |  | 15100 |
| 17 | > 10000 | CN(C)CCC(C)(C)Nc1cc(-c2ccncc2F)nc2cnccc12 [Example 276, (3-{[2-(3-fluoropyridin-4-yl)-1,7-naphthyridin-4-yl]amino}-3-methylbutyl)dimethylamine] |  | > 20000 |
| 10 |  | CC(C)(CO)Nc1cc(-c2ccncc2F)nc2cnccc12 [Example 282, 2-{[2-(3-fluoropyridin-4-yl)-1,7-naphthyridin-4-yl]amino}-2-methylpropan-1-ol] | 8270 | 11300 |
|  | > 10000 | CC1(C)CC(O)CCN1c1cc(-c2ccncc2Cl)nc2cnccc12 (stereo not shown) [Example 283, 1-[2-(3-chloropyridin-4-yl)-1,7-naphthyridin-4-yl]-2,2-dimethylpiperidin-4-ol] | 8250 | 14200 |
| 30 |  | CC(C)(CN1CCOCC1)Nc1cc(-c2ccncc2F)nc2cnccc12 [Example 284, 2-(3-fluoropyridin-4-yl)-N-[2-methyl-1-(morpholin-4-yl)propan-2-yl]-1,7-naphthyridin-4-amine] | 46500 | > 41200 |
